In patent US20250129027A1 (APOGEE PHARMACEUTICALS, INC., priority 2023, published 2025):
pIC50: −log10 of the molar value.

Key:
[1] = target: human recombinant FAAH (Homo sapiens (Human), UniProt O00519); assay: In vitro inhibition of FAAH activity (fluorescent inhibitor screening kit, AMC arachidonoyl amide); type: biochemical; conditions: human recombinant FAAH; read-out: Inhibition on FAAH activity (IC50)
Text: The inhibitory effect of compounds of Formula (I-IV) on the activity of human recombinant FAAH was studied using a commercial inhibitor screening kit (Cayman Chemicals, Godlewski et al., 2010 [19]). In brief, FAAH hydrolyzes AMC arachidonoyl amide resulting in the release of the fluorescent product, while the inhibitor will inhibit the FAAH activity and thus reduce the fluorescent signal. The resulting fluorophore can be analyzed using an excitation wavelength of 340-360 nm and an emission wavelength of 450-465 nm by a plate reader (Synergy H1, Biotek). Inhibition is calculated as a percentage of the treated sample over the non-treated control based on the signal values, and where possible, a range of concentrations of compounds was tested to find the IC50 values (i.e. the concentration of compound that inhibited 50% FAAH activity).

[2] = target: human recombinant MAGL (Homo sapiens (Human), UniProt Q99685); assay: In vitro inhibition of MAGL activity (inhibitor screening kit, 4-nitrophenylacetate); type: biochemical; conditions: human recombinant MAGL
Sequence of human recombinant MAGL (Q99685 whole entry): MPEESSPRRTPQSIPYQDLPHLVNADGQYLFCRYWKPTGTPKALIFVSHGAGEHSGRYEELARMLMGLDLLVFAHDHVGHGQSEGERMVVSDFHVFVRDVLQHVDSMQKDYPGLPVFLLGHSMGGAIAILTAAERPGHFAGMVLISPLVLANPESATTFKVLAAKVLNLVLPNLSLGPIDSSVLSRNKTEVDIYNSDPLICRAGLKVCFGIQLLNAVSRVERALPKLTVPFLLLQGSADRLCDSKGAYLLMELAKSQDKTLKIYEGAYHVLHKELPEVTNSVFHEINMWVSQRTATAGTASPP
Protocol: The inhibitory effect of the compounds on activity of human recombinant MAGL was also studied using a commercial inhibitor screening kit (Cayman Chemicals). In brief, MAGL hydrolyzes 4-nitrophenylacetate resulting in a yellow product, 4-nitrophenol with an absorbance at 405-412 nm, while the inhibitor will inhibit the MAGL activity and thus reduce the yellow signal. The absorbance of the yellow product can be analyzed using the plate reader. Inhibition is calculated as a percentage of the treated sample over the non-treated MAGL control based on the signal values.

Sequence of human recombinant FAAH (O00519 whole entry): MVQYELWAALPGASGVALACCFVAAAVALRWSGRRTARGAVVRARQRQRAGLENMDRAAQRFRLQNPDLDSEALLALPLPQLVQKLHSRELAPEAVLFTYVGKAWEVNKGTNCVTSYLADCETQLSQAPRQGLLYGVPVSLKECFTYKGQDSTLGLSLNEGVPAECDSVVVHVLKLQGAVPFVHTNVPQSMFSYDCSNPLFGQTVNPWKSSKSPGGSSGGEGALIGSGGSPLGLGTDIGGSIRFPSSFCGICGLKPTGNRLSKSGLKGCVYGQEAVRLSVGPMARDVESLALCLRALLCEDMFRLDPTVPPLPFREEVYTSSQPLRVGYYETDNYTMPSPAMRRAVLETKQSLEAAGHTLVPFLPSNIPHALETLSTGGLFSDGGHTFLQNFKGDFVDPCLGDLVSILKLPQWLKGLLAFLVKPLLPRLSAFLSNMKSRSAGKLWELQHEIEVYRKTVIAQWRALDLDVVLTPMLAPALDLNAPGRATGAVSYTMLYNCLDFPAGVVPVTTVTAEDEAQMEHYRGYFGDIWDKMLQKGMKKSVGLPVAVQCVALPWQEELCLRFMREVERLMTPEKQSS

Compound | pIC50 [1] | pIC50 [2]
COc1ccc(OC(=O)NC2CCCCCC2)cc1-c1cncc(-c2ccc[nH]2)c1 [Example 46, 3-(5-(1H-pyrrol-2-yl)pyridin-3-yl)-4-methoxyphenyl cycloheptylcarbamate] | 6.00 to 7.00 | < 5.00
COc1ccc(OC(=O)NC2CCCCC2)cc1-c1cncc(-c2nnco2)c1 [Example 170, 3-(5-(1,3,4-oxadiazol-2-yl)pyridin-3-yl)-4-methoxyphenyl cyclohexylcarbamate] | 6.00 to 7.00 | ~5.00
COc1ccc(OC(=O)NC2CCCC2)cc1-c1cncc(-c2ncn[nH]2)c1 [Example 235, 3-(5-(1H-1,2,4-triazol-5-yl)pyridin-3-yl)-4-methoxyphenyl cyclopentylcarbamate] | 6.00 to 7.00 | < 5.00
COc1ccc(OC(=O)NC2CCCC2)cc1-c1cncc(-c2cccs2)c1 [Example 68, 4-methoxy-3-(5-(thiophen-2-yl)pyridin-3-yl)phenyl cyclopentylcarbamate] | 6.00 to 7.00 | ~5.00
COc1ccc(OC(=O)NCC2CCCCC2)cc1-c1cncc(-c2ccno2)c1 [Example 110, 3-(5-(isoxazol-5-yl)pyridin-3-yl)-4-methoxyphenyl (cyclohexylmethyl)carbamate] | 7.00 to 8.00 | ~5.00
COc1ccc(OC(=O)NCC2CCCCC2)cc1-c1cncc(-c2ncn[nH]2)c1 [Example 233, 3-(5-(1H-1,2,4-triazol-5-yl)pyridin-3-yl)-4-methoxyphenyl (cyclohexylmethyl) carbamate] | 6.00 to 7.00 | ~5.00
CCCCCCCCNC(=O)Oc1cccc(-c2cncc(C(=O)NO)c2)c1 [Example 23, 3-(5-(hydroxycarbamoyl)pyridin-3-yl)phenyl octylcarbamate] | < 6.00 | < 5.00
CC1CCC(NC(=O)Oc2ccc(OC(F)(F)F)c(-c3cncc(-c4nnco4)c3)c2)CC1 (centres unmarked) [Example 201] | 6.00 to 7.00 | < 6.00
COc1ccc(OC(=O)NC2CCC(C)CC2)cc1-c1cncc(-c2ncco2)c1 (centres unmarked) [Example 82, 4-methoxy-3-(5-(oxazol-2-yl)pyridin-3-yl)phenyl (4-methylcyclohexyl)carbamate] | 6.00 to 7.00 | < 5.00
O=C(NCc1ccccc1)Oc1ccc(O)c(-c2cncc(-c3nnn[nH]3)c2)c1 [Example 246, 3-(5-(1H-tetrazol-5-yl)pyridin-3-yl)-4-hydroxyphenyl benzylcarbamate] | < 6.00 | < 5.00
O=C(Oc1cccc(-c2cncc(-c3nnco3)c2)c1)N1CCCCCC1 [Example 145, 3-(5-(1,3,4-oxadiazol-2-yl)pyridin-3-yl)phenyl azepane-1-carboxylate] | < 6.00 | < 5.00
CCOC(=O)c1cncc(-c2cccc(OC(=O)NC3CCCCC3)c2)c1 [Example 6, ethyl 5-(3-((cyclohexylcarbamoyl)oxy)phenyl)nicotinate] | < 7.00 | < 7.00
COc1ccc(OC(=O)NCC2CCCCC2)cc1-c1cncc(-c2nnn[nH]2)c1 [Example 251, 3-(5-(1H-tetrazol-5-yl)pyridin-3-yl)-4-methoxyphenyl (cyclohexylmethyl)carbamate] | < 6.00 | < 5.00
CCCCCCCCNC(=O)Oc1ccc(OC)c(-c2cncc(-c3ncn[nH]3)c2)c1 [Example 232, 3-(5-(1H-1,2,4-triazol-5-yl)pyridin-3-yl)-4-methoxyphenyl octylcarbamate] | 7.00 to 8.00 | ~5.00
O=C(Nc1cccc2ccccc12)Oc1cccc(-c2cncc(-c3nnco3)c2)c1 [Example 140, 3-(5-(1,3,4-oxadiazol-2-yl)pyridin-3-yl)phenyl naphthalen-1-ylcarbamate] | < 7.00 | < 4.30
COc1ccc(OC(=O)NCC2CCCCC2)cc1-c1cncc(-c2ccc[nH]2)c1 [Example 42, 3-(5-(1H-pyrrol-2-yl)pyridin-3-yl)-4-methoxyphenyl (cyclohexylmethyl)carbamate] | 6.00 to 7.00 | ~5.00
3-(5-(1,3,4-oxadiazol-2-yl)134 pyridine-3-yl)phenyl heptylcarbamate [Example 129] | 8.00 to 9.00 | < 5.00
O=C(NCC1CCCCC1)Oc1cccc(-c2cc(-c3nnco3)ccn2)c1 [Example 257, 3-(4-(1,3,4-oxadiazol-2-yl)pyridin-2-yl)phenyl (cyclohexylmethyl)carbamate] | 7.00 to 8.00 | < 5.00
CCCCCCCCNC(=O)Oc1ccc(O)c(-c2cncc(-c3nnn[nH]3)c2)c1 [Example 244, 3-(5-(1H-tetrazol-5-yl)pyridin-3-yl)-4-hydroxyphenyl octylcarbamate] | 6.00 to 7.00 | < 5.00

Compound | pIC50 [1] | pIC50 [2]
O=C(NC1CCCCCC1)Oc1cccc(-c2cncc(-c3nncs3)c2)c1 [Example 212, 3-(5-(1,3,4-thiadiazol-2-yl)pyridin-3-yl)phenyl cycloheptylcarbamate] | 7.00 to 8.00 | < 5.00
O=C(NC1CCCC1)Oc1cccc(-c2cncc(-c3nnco3)n2)c1 [Example 266, 3-(6-(1,3,4-oxadiazol-2-yl)pyrazin-2-yl)phenyl cyclopentylcarbamate] | 7.00 to 8.00 | 5.00 to 6.00
O=C(NC1CCCCCC1)Oc1cccc(-c2cncc(-c3nnco3)c2)c1 [Example 137, 3-(5-(1,3,4-oxadiazol-2-yl)pyridin-3-yl)phenyl cycloheptylcarbamate] | 7.70 to 8.00 | < 5.00
COc1ccc(OC(=O)NC2CCCCCC2)cc1-c1cncc(-c2nccs2)c1 [Example 126, 4-methoxy-3-(5-(thiazol-2-yl)pyridin-3-yl)phenyl cycloheptylcarbamate] | 6.00 to 7.00 | < 5.00
O=C(NC1CCCC1)Oc1ccc(F)c(-c2cncc(-c3ncco3)c2)c1 [Example 85, 4-fluoro-3-(5-(oxazol-2-yl)pyridin-3-yl)phenyl cyclopentylcarbamate] | 7.00 to 8.00 | < 5.00
O=C(NC1CCCCC1)Oc1cccc(-c2cncc(-c3nnn[nH]3)c2)c1 [Example 242, 3-(5-(1H-tetrazol-5-yl)pyridin-3-yl)phenyl cyclohexylcarbamate] | < 6.00 | < 5.00
O=C(NC1CCCCC1)Oc1cc(O)cc(-c2cncc(-c3nnco3)c2)c1 [Example 164, 3-(5-(1,3,4-oxadiazol-2-yl)pyridin-3-yl)-5-hydroxyphenyl cyclohexylcarbamate] | 7.00 to 8.00 | < 4.30
O=C(NC1CCCC1)Oc1cccc(-c2cncc(-c3ccno3)c2)c1 [Example 106, 3-(5-(isoxazol-5-yl)pyridin-3-yl)phenyl cyclopentylcarbamate] | 7.00 to 8.00 | < 5.00
CCCCCCCNC(=O)Oc1cccc(-c2cncc(C=O)c2)c1 [Example 15, 3-(5-formylpyridin-3-yl)phenyl heptylcarbamate] | 7.00 to 8.00 | 4.30 to 5.00
COc1ccc(OC(=O)NC2CCCCC2)cc1-c1cncc(-c2ncn[nH]2)c1 [Example 236, 3-(5-(1H-1,2,4-triazol-5-yl)pyridin-3-yl)-4-methoxyphenyl cyclohexyl carbamate] | 6.00 to 7.00 | < 5.00
O=C(NCCCc1ccccc1)Oc1cccc(-c2cncc(-c3nnco3)c2)c1 [Example 136, 3-(5-(1,3,4-oxadiazol-2-yl)pyridine-3-yl)phenyl (3-phenylpropyl)carbamate] | 7.00 to 8.00 | 4.30 to 5.00
COc1ccc(OC(=O)NCc2ccccc2)cc1-c1cncc(-c2nnn[nH]2)c1 [Example 252, 3-(5-(1H-tetrazol-5-yl)pyridin-3-yl)-4-methoxyphenyl benzylcarbamate] | < 6.00 | < 5.00
O=C(NCC1CCCCC1)Oc1cccc(-c2cncc(-c3nnn[nH]3)c2)c1 [Example 239, 3-(5-(1H-tetrazol-5-yl)pyridin-3-yl)phenyl (cyclohexylmethyl)carbamate] | < 6.00 | < 5.00
CCCCCCCCNC(=O)Oc1ccc(OC)c(-c2cncc(-c3nnn[nH]3)c2)c1 [Example 250, 3-(5-(1H-tetrazol-5-yl)pyridin-3-yl)-4-methoxyphenyl octylcarbamate] | 6.00 to 7.00 | ~5.00
CCCCCCCCNC(=O)Oc1ccc(OC(F)(F)F)c(-c2cncc(-c3nnco3)c2)c1 [Example 199, 3-(5-(1,3,4-oxadiazol-2-yl)pyridin-3-yl)-4-(trifluoromethoxy)phenyl octylcarbamate] | 7.00 to 8.00 | 5.00 to 6.00
COc1ccc(OC(=O)NCC2CCCCC2)cc1-c1cncc(-c2ccco2)c1 [Example 54, 3-(5-(furan-2-yl)pyridin-3-yl)-4-methoxyphenyl (cyclohexylmethyl)carbamate] | 6.00 to 7.00 | ~5.00
O=C(NCC1CCCCC1)Oc1cccc(-c2cncc(-c3ncn[nH]3)c2)c1 [Example 220, 3-(5-(1H-1,2,4-triazol-5-yl)pyridin-3-yl)phenyl (cyclohexylmethyl)carbamate] | 7.00 to 8.00 | ~5.00
COc1ccc(OC(=O)NC2CCCCC2)cc1-c1cncc(-c2ccco2)c1 [Example 57, 3-(5-(furan-2-yl)pyridin-3-yl)-4-methoxyphenyl cyclohexylcarbamate] | 6.00 to 7.00 | < 5.00
